Assay [1] deals with Langerhans cells (LC) and dendritic cells (DC) in mice. The assay can be described thus: Migration of dendritic cells from ear skin to draining ganglions in mice sensitized by FITC hapten. In kind it is in vivo. Particulars: for Migration inhibition in %: FITC hapten; for migration of DCs to LGs (in words): OX100 alone, mice sensitized by FITC hapten. The source says:
FITC (Fluoresceine isothiocyanate, Sigma, St Louis, Mo.) was extemporaneously diluted in an acetone mix (dibutylphthalate (1:1)).
Oxazoline OX100 and LU105 (LU 105 is an MMP inhibitor, corresponding to a peptide extract of white lupin marketed by the Expanscience Company under the brand name Actimp 193®) were supplied by “Laboratoires Expanscience” and formulated alone or association with each other in an inert vehicle compatible with a topical application (oxazoline OX100 (0.1%) LU105 (2%)). The different formulations were applied on the ears of mice twice per day for 4 consecutive days. 1.5% of FITC was applied on both ears (one treated and the other not treated (Control)) three hours after the last application.
The effect of the two molecules was evaluated in vivo in mice. 1.5% FITC (2×5 μl) was applied on the skin of both ears. 24 h later, the mice were sacrificed and a cellular suspension was prepared from auricular and cervical ganglions (draining ganglions, hereinafter denoted GL) or from the poplital ganglions (non-draining ganglions, negative control). The tissues were cut and cells separated by filtration (100 μm filter, Falcon; Becton Dickinson) and then washed. The cells were then centrifuged for 10 minutes at 600×g (m×s^−2) on a metrizamide gradient (14.5% in RPMI 1640; 7.5% SVF). The interface cells were retrieved, rinsed and then marked with an anti-CDS86 PE-conjugated, biot-MHC CLII mAbs AC plus streptavidine-Cya (PharMingen) and analyzed by flux cytometry. Only the FITC^+, PE^+ and Cya^+ cells are counted since they represent the population of cells that migrated from the skin to GLs following the application of hapten.
FITC (Fluoresceine isothiocyanate, Sigma, St. Louis, Mo.) was diluted extemporaneously in a mixture of acetone and dibutylphthalate (1:1).
Oxazoline OX100 and AK100 (described above) were supplied by “Laboratoires Expanscience” and formulated alone or in association in an inert vehicle compatible with a topical application [OX100 (0.05%) AK100 (0.05%)]. The different formulations were applied on the ears of mice twice per day for 4 consecutive days. Three hours after the last application, 1.5% of FITC was applied on both ears (one treated and the other not treated (Control)).

For assay [2], the system named is Langerhans cells freshly isolated from human skin. Description: Migration of Langerhans cells freshly isolated from human skin, sensitized by DNSB, two-compartment Matrigel chamber. It counts as cell-based. As for the experimental part: Epidermal cell suspensions were obtained by enzymatic treatment (0.05% trypsine for 18 h at +4° C.) of fragments of normal human skin taken from plastic surgery. The suspensions obtained contain an average of 2 to 4% of LC. Obtaining suspensions containing an average of 70% of LC is based on the principle of centrifuging on density gradient (Lymphoprep™) and elimination of keratinocytes.
The basic medium chosen for the entire study was PRMI 1640 (Gibco BRL, France). The OX100 molecule supplied by Pharmascience, with a concentration of 10^−2 M in solution in DMSO (Dimethyl Sulfoxide) was diluted in RPMI-1640 and tested at 1 μM.
The sensitizing agent was DNSB (Sigma Aldrich), a soluble form of DNCB (dinitro-chloro-benzene) solubilized in RPMI-BSA and used at a concentration of 50 μM.
A culture chamber system with two compartments (Falcon, Becton Dickinson, France) was used. The upper compartment is separated from the lower compartment by a membrane with 8 μm porosity, on which 50 μg/cm^2 Matrigel was deposited. […] After 18 h incubation at 37° C., the number of living cells that passed through the Matrigel and that are located in the lower compartment is counted under a microscope (the LCs are easily identifiable by their dendritic form). […]

Assay [3] concerns dendritic cells generated in vitro from CD34+ precursors derived from blood from the umbilical cord. Description: Migration of dendritic cells generated in vitro from CD34+ precursors of umbilical cord blood, activated by hapten BB. It counts as cell-based. Conditions: for inhibition at 1 µM: Dendritic cell, hapten BB; for Percentage of dendritic cells generated in vitro that migrated: BB + OX100 (1 μM). As for the experimental part:
Mononucleated cells were obtained from blood from the umbilical cord of healthy donors by centrifuging on Ficoll. The CD34+ cells were then purified by immunoselection using a specific antibody and magnetic balls (Miltenyi Biotech, Germany). The CD34+ cells were cultivated in the presence of GM-CSF (100 ng/ml), TNF-α (2.5 ng/ml) in RPMI to which 10% calf fetus serum was added for 5 days. TGF-β1, a factor that encourages differentiation of cells to the Langerhans cells […], was added on the 5th day of culture.
Preparation of Media (Ditto Example 2).
Cells were treated by hapten BB on the 7th day (Brandowski base, 1.17 μg/ml) for 24 h, and were then subjected to the migration test.
Migration of LCs (Ditto Example 2).

Usually inhibition stands for the percentage by which the read-out fell short of the control.

`CCCCCCCCCCCC(=O)NC(C)(C)CO` [AK100]: in assay [1] (Example 5, AK100 0.05% topical on ears twice per day for 4 days), the “Migration inhibition in %” value is 15%.
`CCCCCCCCCCCC1=NC(C)(C)CO1` [OX100, 2-undecyl-4,4-dimethyl-1,3-oxazoline]: in assay [2] (1 μM), the “migration of LCs induced by DNSB (in words)” value is given as “significantly inhibits”. Further, the LC migration index in assay [2] (DNSB + OX100 (1 μM), 18 h, control cells set to 1, DNSB alone 2.55) is 0.98. The “migration of dendritic cells generated in vitro and activated by hapten BB (in words)” value in assay [3] (1 μM) is given as “significantly inhibits”. The inhibition at 1 µM in assay [3] (experiment 1, 1 μM) amounted to 29%; in assay [3] (experiment 2, 1 μM) it was 15%. For the same compound, the “Percentage of dendritic cells generated in vitro that migrated” value was 12% in assay [3] (Experiment 1, BB alone 17) and 20.3% in assay [3] (Experiment 2, BB alone 24). The “Migration inhibition in %” value in assay [1] (Example 4, OX100 0.1% topical on ears twice per day for 4 days) was 30%; in assay [1] (Example 5, OX100 0.05% topical on ears twice per day for 4 days), 15%. The “migration of DCs to LGs (in words)” value in assay [1] (Example 4) and in assay [1] (Example 5) was “significantly inhibits” each time.
